Measurements as given in patent publication US20160122320A1, “USEFUL COMBINATIONS OF MONOBACTAM ANTIBIOTICS WITH BETA-LACTAMASE INHIBITORS” (Basilea Pharmaceutica AG, priority 2005, published 2016).
Counter-ions that a name gives are not always drawn.

Legend:
Assay in all cases: MIC, NCCLS broth microdilution
Assay type in all cases: cell-based
[1] = test system: Pseudomonas aeruginosa MK1184; details: for MIC of antibiotic: antibiotic alone, no inhibitor; for MIC of antibiotic at fixed inhibitor concentration (4 mg/L): MIC of antibiotic compound 1 with the labelled bridged monobactam of formula II and clavulanate, 4 mg/L each
[2] = test system: Pseudomonas aeruginosa 1973E; details: for MIC of antibiotic: antibiotic alone, no inhibitor; for MIC of antibiotic at fixed inhibitor concentration (4 mg/L): MIC of antibiotic compound 1 with the labelled bridged monobactam of formula II and clavulanate, 4 mg/L each
In short: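 Compounds were serially diluted per NCCLS M7-A5 (final DMSO no more than 1%) and incubated with bacteria overnight at 30° C. or 37° C. Visible growth was then judged by eye. For combinations, partner compounds sat in every well at a constant 4 μg/mL each.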

[3] = test system: Stenotrophomonas malthophilia 1AC736; details: for MIC of antibiotic / MIC of antibiotic at fixed inhibitor concentration of 4 mg/L: Stenotrophomonas maltophilia 1AC736; for MIC of antibiotic: antibiotic alone, no inhibitor; for MIC of antibiotic at fixed inhibitor concentration (4 mg/L): Stenotrophomonas malthophilia 1AC736, MIC of antibiotic compound 1 with the labelled bridged monobactam of formula II and clavulanate, 4 mg/L each
Experimental: (§1) Antimicrobial activity of the compounds and of their combinations was determined against a selection of organisms according to the standard procedures described by the National Committee for Clinical Laboratory Standards (National Committee for Clinical Laboratory. Standards (2000). Methods for Dilution Antimicrobial Susceptibility Tests for Bacteria That Grow Aerobically-Fifth Edition: Approved Standard M7-A5. NCCLS, Wayne, Pa., USA).
(§2) In all cases the final concentration of DMSO incubated with the bacteria is less than or equal to 1%. […] Plates were incubated overnight at an appropriate temperature (30° C. or 37° C.) and optical densities assessed by eye. The MIC value is defined as the lowest compound concentration completely inhibiting visible growth of the test organism. When combinations between compounds of formula I with compounds of formula II and are evaluated the compounds of formula I are tested in dilution series as described above while the compounds of formula II and III-XIII were present in all wells at a constant concentration of 4 μg/mL each.

[4] = test system: Klebsiella pneumoniae CF104; details: for MIC of antibiotic: antibiotic alone, no inhibitor; for MIC of antibiotic at fixed inhibitor concentration (4 mg/L): MIC of antibiotic compound 1 with the labelled bridged monobactam of formula II and clavulanate, 4 mg/L each
[5] = test system: Acinetobacter sp. J2; details: for MIC of antibiotic / MIC of antibiotic at fixed inhibitor concentration of 4 mg/L: Acinetobacter baumannii J2; for MIC of antibiotic: antibiotic alone, no inhibitor; for MIC of antibiotic at fixed inhibitor concentration (4 mg/L): Acinetobacter sp. J2, MIC of antibiotic compound 1 with the labelled bridged monobactam of formula II and clavulanate, 4 mg/L each
[6] = test system: Enterobacter cloacae P99; details: for MIC of antibiotic: antibiotic alone, no inhibitor; for MIC of antibiotic at fixed inhibitor concentration (4 mg/L): MIC of antibiotic compound 1 with the labelled bridged monobactam of formula II and clavulanate, 4 mg/L each
[7] = test system: Serratia marcescens S6; details: for MIC of antibiotic: antibiotic alone, no inhibitor; for MIC of antibiotic at fixed inhibitor concentration (4 mg/L): MIC of antibiotic compound 1 with the labelled bridged monobactam of formula II and clavulanate, 4 mg/L each
Experimental: as §1, §2

CC1(C)C(NC(=O)C(=NOCc2cc(=O)c(O)cn2O)c2csc(N)n2)C(=O)N1OCC(=O)O (centres unmarked) [Compound 33]
MIC of antibiotic [1]: 32 µg/mL | MIC of antibiotic at fixed inhibitor concentration of 4 mg/L ([1]; with 102 and clavulanate): 16 µg/mL | MIC of antibiotic at fixed inhibitor concentration of 4 mg/L ([1]; with 324 and clavulanate): 32 µg/mL | MIC of antibiotic [2]: 32 µg/mL | MIC of antibiotic at fixed inhibitor concentration of 4 mg/L ([2]; with 102 and clavulanate): 16 µg/mL | MIC of antibiotic at fixed inhibitor concentration of 4 mg/L ([2]; with 324 and clavulanate): 16 µg/mL | MIC of antibiotic [3]: 2 µg/mL | MIC of antibiotic at fixed inhibitor concentration of 4 mg/L ([3]; with 102 and clavulanate): 2 µg/mL | MIC of antibiotic at fixed inhibitor concentration of 4 mg/L ([3]; with 324 and clavulanate): 2 µg/mL | MIC of antibiotic [4]: 2 µg/mL | MIC of antibiotic at fixed inhibitor concentration of 4 mg/L ([4]; with 102 and clavulanate): 0.5 µg/mL | MIC of antibiotic at fixed inhibitor concentration of 4 mg/L ([4]; with 324 and clavulanate): 0.5 µg/mL | MIC of antibiotic [5]: >32 µg/mL | MIC of antibiotic at fixed inhibitor concentration of 4 mg/L ([5]; with 102 and clavulanate): 16 µg/mL | MIC of antibiotic at fixed inhibitor concentration of 4 mg/L ([5]; with 324 and clavulanate): 8 µg/mL | MIC of antibiotic [6]: 32 µg/mL | MIC of antibiotic at fixed inhibitor concentration of 4 mg/L ([6]; with 102 and clavulanate): 4 µg/mL | MIC of antibiotic at fixed inhibitor concentration of 4 mg/L ([6]; with 324 and clavulanate): 16 µg/mL | MIC of antibiotic [7]: 0.5 µg/mL | MIC of antibiotic at fixed inhibitor concentration of 4 mg/L ([7]; with 102 and clavulanate): 0.25 µg/mL | MIC of antibiotic at fixed inhibitor concentration of 4 mg/L ([7]; with 324 and clavulanate): 0.25 µg/mL

O=C(C[n+]1ccc2c(c1)CCCC2)N1CC[C@@H]2[C@H]1C(=O)N2S(=O)(=O)[O-] [Compound 106, (1S,5R)-7-oxo-2-(2-(2-5,6,7,8-tetrahydroisoquinolinium)acetyl)-2,6-diazabicyclo[3.2.0]heptane-6-sulfonate, inner salt]
MIC of antibiotic at fixed inhibitor concentration (4 mg/L) [1]: 32 µg/mL | MIC of antibiotic at fixed inhibitor concentration (4 mg/L) [2]: 4 µg/mL | MIC of antibiotic at fixed inhibitor concentration (4 mg/L) [3]: 0.125 µg/mL | MIC of antibiotic at fixed inhibitor concentration (4 mg/L) [4]: 0.25 µg/mL | MIC of antibiotic at fixed inhibitor concentration (4 mg/L) [5]: >32 µg/mL | MIC of antibiotic at fixed inhibitor concentration (4 mg/L) [6]: >32 µg/mL | MIC of antibiotic at fixed inhibitor concentration (4 mg/L) [7]: 0.25 µg/mL

O=C(Nc1cccc(CO)c1)N1CC[C@@H]2[C@H]1C(=O)N2S(=O)(=O)[O-].[Na+] [Compound 321, Sodium(1S,5R)-2-{N-[3-(hydroxymethyl)phenyl]carbamoyl}-7-oxo-2,6-diazabicyclo[3.2.0]heptane-6-sulfonate]
MIC of antibiotic at fixed inhibitor concentration (4 mg/L) [1]: >32 µg/mL | MIC of antibiotic at fixed inhibitor concentration (4 mg/L) [2]: 4 µg/mL | MIC of antibiotic at fixed inhibitor concentration (4 mg/L) [3]: 0.125 µg/mL | MIC of antibiotic at fixed inhibitor concentration (4 mg/L) [4]: 1 µg/mL | MIC of antibiotic at fixed inhibitor concentration (4 mg/L) [5]: 16 µg/mL | MIC of antibiotic at fixed inhibitor concentration (4 mg/L) [6]: >32 µg/mL | MIC of antibiotic at fixed inhibitor concentration (4 mg/L) [7]: 0.25 µg/mL

O=C(Nc1ccc(O)cc1)N1CC[C@@H]2[C@H]1C(=O)N2S(=O)(=O)[O-].[Na+] [Compound 316]
MIC of antibiotic at fixed inhibitor concentration (4 mg/L) [1]: 32 µg/mL | MIC of antibiotic at fixed inhibitor concentration (4 mg/L) [2]: 4 µg/mL | MIC of antibiotic at fixed inhibitor concentration (4 mg/L) [3]: 0.125 µg/mL | MIC of antibiotic at fixed inhibitor concentration (4 mg/L) [4]: 0.5 µg/mL | MIC of antibiotic at fixed inhibitor concentration (4 mg/L) [5]: 16 µg/mL | MIC of antibiotic at fixed inhibitor concentration (4 mg/L) [6]: 8 µg/mL | MIC of antibiotic at fixed inhibitor concentration (4 mg/L) [7]: 0.25 µg/mL

COc1ccc(NC(=O)N2CC[C@@H]3[C@H]2C(=O)N3S(=O)(=O)[O-])cc1.[Na+] [Compound 304]
MIC of antibiotic at fixed inhibitor concentration (4 mg/L) [1]: >32 µg/mL | MIC of antibiotic at fixed inhibitor concentration (4 mg/L) [2]: 4 µg/mL | MIC of antibiotic at fixed inhibitor concentration (4 mg/L) [3]: 0.125 µg/mL | MIC of antibiotic at fixed inhibitor concentration (4 mg/L) [4]: 1 µg/mL | MIC of antibiotic at fixed inhibitor concentration (4 mg/L) [5]: >32 µg/mL | MIC of antibiotic at fixed inhibitor concentration (4 mg/L) [6]: 32 µg/mL | MIC of antibiotic at fixed inhibitor concentration (4 mg/L) [7]: 0.25 µg/mL

C[C@H]1[C@H](NC(=O)/C(=N\OCc2cc(=O)c(O)cn2O)c2csc(N)n2)C(=O)N1OCC(=O)O [Compound 22, 2-((3S,4S)-3-{(2Z)-2-(2-amino(1,3-thiazol-4-yl))-3-[(1,5-dihydroxy-4-oxo(2-hydropyridyl))methoxy]-3-azaprop-2-enoylamino}-4-methyl-2-oxoazetidinyloxy)acetic acid]
MIC of antibiotic [1]: 8 µg/mL | MIC of antibiotic at fixed inhibitor concentration of 4 mg/L ([1]; with 102 and clavulanate): 4 µg/mL | MIC of antibiotic at fixed inhibitor concentration of 4 mg/L ([1]; with 324 and clavulanate): 4 µg/mL | MIC of antibiotic at fixed inhibitor concentration of 4 mg/L ([1]; with 324 and sulbactam): 4 µg/mL | MIC of antibiotic [2]: 4 µg/mL | MIC of antibiotic at fixed inhibitor concentration of 4 mg/L ([2]; with 102 and clavulanate): 4 µg/mL | MIC of antibiotic at fixed inhibitor concentration of 4 mg/L ([2]; with 324 and clavulanate): 4 µg/mL | MIC of antibiotic at fixed inhibitor concentration of 4 mg/L ([2]; with 324 and sulbactam): 4 µg/mL | MIC of antibiotic [3]: 0.5 µg/mL | MIC of antibiotic at fixed inhibitor concentration of 4 mg/L ([3]; with 102 and clavulanate): 1 µg/mL | MIC of antibiotic at fixed inhibitor concentration of 4 mg/L ([3]; with 324 and clavulanate): 1 µg/mL | MIC of antibiotic at fixed inhibitor concentration of 4 mg/L ([3]; with 324 and sulbactam): 1 µg/mL | MIC of antibiotic [4]: >32 µg/mL | MIC of antibiotic at fixed inhibitor concentration of 4 mg/L ([4]; with 102 and clavulanate): 0.25 µg/mL | MIC of antibiotic at fixed inhibitor concentration of 4 mg/L ([4]; with 324 and clavulanate): 0.25 µg/mL | MIC of antibiotic at fixed inhibitor concentration of 4 mg/L ([4]; with 324 and sulbactam): 4 µg/mL | MIC of antibiotic [5]: >32 µg/mL | MIC of antibiotic at fixed inhibitor concentration of 4 mg/L ([5]; with 102 and clavulanate): 4 µg/mL | MIC of antibiotic at fixed inhibitor concentration of 4 mg/L ([5]; with 324 and clavulanate): 8 µg/mL | MIC of antibiotic at fixed inhibitor concentration of 4 mg/L ([5]; with 324 and sulbactam): 2 µg/mL | MIC of antibiotic [6]: >32 µg/mL | MIC of antibiotic at fixed inhibitor concentration of 4 mg/L ([6]; with 102 and clavulanate): 8 µg/mL | MIC of antibiotic at fixed inhibitor concentration of 4 mg/L ([6]; with 324 and clavulanate): 4 µg/mL | MIC of antibiotic at fixed inhibitor concentration of 4 mg/L ([6]; with 324 and sulbactam): 4 µg/mL | MIC of antibiotic [7]: 0.13 µg/mL | MIC of antibiotic at fixed inhibitor concentration of 4 mg/L ([7]; with 102 and clavulanate): 0.25 µg/mL | MIC of antibiotic at fixed inhibitor concentration of 4 mg/L ([7]; with 324 and clavulanate): 0.13 µg/mL | MIC of antibiotic at fixed inhibitor concentration of 4 mg/L ([7]; with 324 and sulbactam): 0.13 µg/mL

Cc1ccc(C(N)=O)c[n+]1CC(=O)N1CC[C@@H]2[C@H]1C(=O)N2S(=O)(=O)[O-] [Compound 111, (1S,5R)-2-[2-(3-carbamoyl-6-methylpyridinium)acetyl]-7-oxo-2,6-diazabicyclo[3.2.0]heptane-6-sulfonate, inner salt]
MIC of antibiotic at fixed inhibitor concentration (4 mg/L) [1]: 8 µg/mL | MIC of antibiotic at fixed inhibitor concentration (4 mg/L) [2]: 4 µg/mL | MIC of antibiotic at fixed inhibitor concentration (4 mg/L) [3]: 0.125 µg/mL | MIC of antibiotic at fixed inhibitor concentration (4 mg/L) [4]: <0.06 µg/mL | MIC of antibiotic at fixed inhibitor concentration (4 mg/L) [5]: 4 µg/mL | MIC of antibiotic at fixed inhibitor concentration (4 mg/L) [6]: 4 µg/mL | MIC of antibiotic at fixed inhibitor concentration (4 mg/L) [7]: 0.25 µg/mL

Nc1cc[n+](CC(=O)N2CC[C@@H]3[C@H]2C(=O)N3S(=O)(=O)[O-])cc1 [Compound 103, (1S,5R)-2-[2-(4-aminopyridinium)acetyl]-7-oxo-2,6-diazabicyclo[3.2.0]heptane-6-sulfonate, inner salt]
MIC of antibiotic at fixed inhibitor concentration (4 mg/L) [1]: 8 µg/mL | MIC of antibiotic at fixed inhibitor concentration (4 mg/L) [2]: 4 µg/mL | MIC of antibiotic at fixed inhibitor concentration (4 mg/L) [3]: 0.125 µg/mL | MIC of antibiotic at fixed inhibitor concentration (4 mg/L) [4]: 0.5 µg/mL | MIC of antibiotic at fixed inhibitor concentration (4 mg/L) [5]: 8 µg/mL | MIC of antibiotic at fixed inhibitor concentration (4 mg/L) [6]: 32 µg/mL | MIC of antibiotic at fixed inhibitor concentration (4 mg/L) [7]: 0.25 µg/mL

CN(C)CCNC(=O)c1ccc(NC(=O)N2CC[C@@H]3[C@H]2C(=O)N3S(=O)(=O)[O-])cc1.[Na+] [Compound 310, Sodium(1S,5R)-2-[N-(4-{N-[2-(dimethylamino)ethyl]carbamoyl}phenyl)carbamoyl]-7-oxo-2,6-diazabicyclo[3.2.0]heptane-6-sulfonate]
MIC of antibiotic at fixed inhibitor concentration (4 mg/L) [1]: 16 µg/mL | MIC of antibiotic at fixed inhibitor concentration (4 mg/L) [2]: 4 µg/mL | MIC of antibiotic at fixed inhibitor concentration (4 mg/L) [3]: 0.125 µg/mL | MIC of antibiotic at fixed inhibitor concentration (4 mg/L) [4]: 2 µg/mL | MIC of antibiotic at fixed inhibitor concentration (4 mg/L) [5]: >32 µg/mL | MIC of antibiotic at fixed inhibitor concentration (4 mg/L) [6]: 4 µg/mL | MIC of antibiotic at fixed inhibitor concentration (4 mg/L) [7]: 0.5 µg/mL
